Reference: patent US20130296311A1, “INHIBITORS OF HCV NS5A” (PRESIDIO PHARMACEUTICALS, INC., priority 2010, published 2013)
pEC50: −log10 of the molar value.

What follows are compounds tested on HCV 1b_Huh-Luc/Neo-ET cell line persistently expressing a bicistronic genotype 1b replicon in Huh 7 cells (assay: HCV replicon assay (luciferase readout, 72 h)). Conditions: Hepatitis C virus, Huh-7, 72 h, read-out: Inhibition of HCV.
Format: cell-based, HCV genotype 1b
How it was run: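 EC50 values come from a four-parameter fit of luciferase signal as % of untreated control, repeated across several determinations. The signal is from the HCV 1b_Huh-Luc/Neo-ET replicon line, dosed in triplicate one day post-plating and incubated 72 h before Bright-Glo readout.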
For COC(=O)N[C@H](C(=O)N1CCC[C@H]1c1nc2ccc(C#Cc3ccc4nc([C@@H]5CCCN5C(=O)[C@@H](NC(=O)OC)C(C)C)[nH]c4c3)cc2[nH]1)C(C)C [Compound 852], the pEC50 was over 9.00.

Same assay, conditions: Hepatitis C virus, Huh-7, 72 h, read-out: Inhibition of HCV genotype 1b
With COC(=O)N[C@@H](C(=O)N1CCC[C@H]1c1ncc(-c2ccc(C#Cc3ccc(C(=O)NC[C@@H]4CCCN4C(=O)[C@H](NC(=O)N4CCOCC4)c4ccccc4)cc3)cc2)[nH]1)c1ccccc1 [Compound 235] the pEC50 was over 9.00.
Compound COC(=O)N[C@@H](C(=O)N1CCC[C@H]1c1ncc(-c2ccc(C#Cc3ccc(-c4cnc([C@@H]5CCCN5C(=O)Nc5ccccc5)[nH]4)cc3)cc2)[nH]1)c1ccccc1 [Compound 196] has a pEC50 of 8.00 to 9.00.
COC(=O)N[C@H](C(=O)N[C@@H](C)c1ncc(-c2ccc(C#Cc3ccc(-c4cnc([C@@H]5CCCN5C(=O)[C@@H](C(C)C)N(C)C)[nH]4)cc3)cc2)[nH]1)C(C)C [Compound 964] showed a pEC50 of 8.00 to 9.00.
Compound COC(=O)N[C@H](C(=O)N1CCC[C@H]1c1ncc(-c2ccc(C#Cc3ccc4nc([C@@H]5CCCN5C(=O)[C@@H](c5ccccc5)N(C)C)[nH]c4c3)cc2)[nH]1)C(C)C [Compound 860] has a pEC50 of over 9.00.
With COC(=O)N[C@H](C(=O)N1CCC[C@H]1c1ncc(-c2ccc(C#Cc3ccc(-c4cnc([C@@H]5CCCN5C(=O)[C@@H](NC(=O)OC)[C@@H](C)OC)[nH]4)cc3)cc2)[nH]1)[C@@H](C)OC [Compound 284] the pEC50 was over 9.00.
For COC(=O)N[C@@H](C(=O)N1CCC[C@H]1c1ncc(C#Cc2ccc(C#Cc3cnc([C@@H]4CCCN4C(=O)[C@@H](c4ccccc4)N(C)C)[nH]3)cc2)[nH]1)c1ccccc1 [Compound 314], the pEC50 was over 9.00.
With COC(=O)N[C@H](C(=O)N1CCC[C@H]1c1ncc(C#Cc2ccc(-c3ccc4nc([C@@H]5CCCN5C(=O)[C@H](NC(=O)OC)c5ccccc5)[nH]c4c3)nc2)[nH]1)C(C)C [Compound 1087] the pEC50 was over 9.00.
With COC(=O)N[C@@H](C(=O)N1CCC[C@H]1c1ncc(-c2ccc(C#Cc3ccc(-c4cnc([C@@H]5CCCN5C(=O)[C@@H](c5ccccc5)N5CCCCC5)[nH]4)cc3)cc2)[nH]1)c1ccccc1 [Compound 188] the pEC50 was over 9.00.
For COCCOc1c(C#Cc2ccc3nc([C@@H]4CCCN4C(=O)[C@@H](NC(=O)OC)C(C)C)[nH]c3c2)ccc(-c2cnc([C@@H]3CCCN3C(=O)[C@H](NC(=O)OC)C(C)C)[nH]2)c1OCCOC [Compound 1066], the pEC50 was over 9.00.
In the case of COC(=O)N[C@H](C(=O)N1CCC[C@H]1c1ncc(-c2ccc(C#Cc3ccc(-c4cnc([C@@H]5CCCN5C(=O)[C@H](C(C)C)N5CCOC5=O)[nH]4)cc3)cc2)[nH]1)C(C)C [Compound 996], the pEC50 was over 9.00.
With CO[C@@H](C(=O)N1CCC[C@H]1c1ncc(-c2ccc(C#Cc3ccc(-c4cnc([C@@H]5CCCN5C(=O)[C@H](OC)c5ccccc5)[nH]4)cc3)cc2)[nH]1)c1ccccc1 [Compound 172] the pEC50 was over 9.00.
Compound O=C(N[C@@H](C(=O)N1CCC[C@H]1c1ncc(C#Cc2ccc(-c3cnc([C@@H]4CCCN4C(=O)[C@H](NC(=O)C4CC4)c4ccccc4)[nH]3)cc2)[nH]1)c1ccccc1)C1CC1 [Compound 100] has a pEC50 of over 9.00.
With COC(=O)N[C@@H](C(=O)N1CCC[C@H]1c1ncc(C#Cc2ccc(-c3cnc([C@@H]4CCCN4C(=O)[C@H](NC(=O)OC)c4ccccc4)[nH]3)cc2)[nH]1)c1ccccc1 [Compound 110] the pEC50 was over 9.00.
Compound CC(C)[C@@H](NC(=O)C1CC1)C(=O)N1CCC[C@H]1c1ncc(C#Cc2ccc(-c3cnc([C@@H]4CCCN4C(=O)[C@H](NC(=O)C4CC4)C(C)C)[nH]3)cc2)[nH]1 [Compound 107] has a pEC50 of 8.00 to 9.00.
COC(=O)N[C@H](C(=O)N1CCC[C@H]1c1ncc(-c2ccc(C#Cc3ccc(-c4cnc([C@@H]5CCCN5C(=O)[C@@H](NC(=O)OC)[C@@H](C)OC)[nH]4)cc3)cc2)[nH]1)C(C)C [Compound 972] was tested, and the pEC50 was over 9.00.
CCC(CC)[C@H](NC(=O)OC)C(=O)N1CCC[C@H]1c1ncc(-c2ccc(C#Cc3ccc4nc([C@@H]5CCCN5C(=O)[C@@H](NC(=O)OC)C(CC)CC)[nH]c4c3)cc2)[nH]1 [Compound 1030] showed a pEC50 of over 9.00.
With CC(C)(C)OC(=O)NC(C)(C)C(=O)N1CCC[C@H]1c1ncc(C#Cc2ccc(-c3cnc([C@@H]4CCCN4C(=O)C(C)(C)NC(=O)OC(C)(C)C)[nH]3)cc2)[nH]1 [Compound 106] the pEC50 was under 6.00.
In the case of COC(=O)N[C@@H](C(=O)N1CCC[C@H]1c1ncc(C#Cc2ccc(C#Cc3cnc([C@@H]4CCCN4C(=O)[C@@H](c4ccccc4)N4CCCC4)[nH]3)cc2)[nH]1)c1ccccc1 [Compound 311], the pEC50 was over 9.00.
For C=CC[C@H](NC(=O)OC)C(=O)N1CCC[C@H]1c1nc2ccc(C#Cc3ccc4c(c3)CCc3nc([C@@H]5CCCN5C(=O)[C@@H](NC(=O)OC)C(C)C)[nH]c3-4)cc2[nH]1 [Compound 1105], the pEC50 was over 9.00.
Compound COC(=O)N[C@@H](C(=O)N1CCC[C@H]1c1ncc(-c2ccc(C#Cc3ccc(-c4cnc([C@@H]5CCCN5C(=O)[C@H](NC(=O)[C@H]5CCCO5)c5ccccc5)[nH]4)cc3)cc2)[nH]1)c1ccccc1 [Compound 201] has a pEC50 of over 9.00.
COC(=O)N[C@@H](C)C(=O)N1CCC[C@H]1c1ncc(-c2ccc(C#Cc3ccc4nc([C@@H]5CCCN5C(=O)[C@H](C)NC(=O)OC)[nH]c4c3)cc2)[nH]1 [Compound 1028] gave a pEC50 of over 9.00.
Compound O=C([C@H](O)c1ccccc1)N1CCC[C@H]1c1ncc(-c2ccc(C#Cc3ccc(-c4cnc([C@@H]5CCCN5C(=O)[C@H](O)c5ccccc5)[nH]4)cc3)cc2)[nH]1 [Compound 157] has a pEC50 of over 9.00.
Work on COC(=O)N[C@H](C(=O)N1CCC[C@H]1c1ncc(-c2ccc(C#Cc3ccc(-c4cnc([C@@H]5CCCN5C(=O)[C@@H](c5ccccc5)N5CCCCC5)[nH]4)cc3)cc2)[nH]1)C(C)C [Compound 986] yielded a pEC50 of over 9.00.
COC(=O)N[C@H](C(=O)N[C@@H](C)c1ncc(-c2ccc(C#Cc3ccc(-c4cnc([C@@H]5CCCN5C(=O)[C@H](C(C)C)N(C)C)[nH]4)cc3)cc2)[nH]1)C(C)C [Compound 963] showed a pEC50 of 8.00 to 9.00.
With COC(=O)N[C@H](C(=O)N1CCC[C@H]1c1ncc(-c2ccc(C#Cc3ccc(-c4cnc([C@@H]5CCCN5C(=O)[C@H](NC(=O)N5CC[C@@H](O)C5)c5ccccc5)[nH]4)cc3)cc2)[nH]1)C(C)C [Compound 975] the pEC50 was over 9.00.
COC(=O)N[C@H](C(=O)N1CCC[C@H]1c1ncc(-c2ccc(C#Cc3ccc(-c4cnc([C@H](C)NC(=O)[C@@H](c5ccccc5)N(C)C)[nH]4)cc3)cc2)[nH]1)C(C)C [Compound 983] was tested, and the pEC50 was over 9.00.
COC[C@@H]1CCCN1C(=O)N[C@@H](C(=O)N1CCC[C@H]1c1ncc(-c2ccc(C#Cc3ccc(-c4cnc([C@@H]5CCCN5C(=O)[C@H](NC(=O)OC)c5ccccc5)[nH]4)cc3)cc2)[nH]1)c1ccccc1 [Compound 260] was tested, and the pEC50 was over 9.00.
Compound COC(=O)N[C@@H](C(=O)N1CCC[C@H]1c1ncc(-c2ccc(C#Cc3ccc(-c4cnc([C@@H]5CCCN5C(=O)OCc5ccccc5)[nH]4)cc3)cc2)[nH]1)c1ccccc1 [Compound 200] has a pEC50 of over 9.00.
With COC(=O)N[C@H](C(=O)N1CCC[C@H]1c1ncc(C#Cc2ccc3cc(C#Cc4cnc([C@@H]5CCCN5C(=O)[C@@H](NC(=O)OC)C(C)C)[nH]4)ccc3c2)[nH]1)C(C)C [Compound 1114] the pEC50 was over 9.00.
Compound O=C(N[C@@H](C(=O)N1CCC[C@H]1c1ncc(-c2ccc(C#Cc3ccc(-c4cnc([C@@H]5CCCN5C(=O)[C@H](NC(=O)N5CC[C@H](O)C5)c5ccccc5)[nH]4)cc3)cc2)[nH]1)c1ccccc1)N1CC[C@H](O)C1 [Compound 245] has a pEC50 of over 9.00.
Compound CC(C)[C@@H](NC(=O)C1CC1)C(=O)N1CCC[C@H]1c1ncc(-c2ccc(C#Cc3ccc(-c4cnc([C@@H]5CCCN5C(=O)[C@H](NC(=O)C5CC5)C(C)C)[nH]4)cc3)cc2)[nH]1 [Compound 155] has a pEC50 of 8.00 to 9.00.
With COC(=O)N[C@@H](CC(C)C)C(=O)N1CCC[C@H]1c1ncc(-c2ccc(C#Cc3ccc(-c4cnc([C@@H]5CCCN5C(=O)[C@H](CC(C)C)NC(=O)OC)[nH]4)cc3)cc2)[nH]1 [Compound 961] the pEC50 was over 9.00.
In the case of COC(=O)N[C@@H](C(=O)N1CCC[C@H]1c1ncc(C#Cc2ccc(-c3ccc(-c4cnc([C@@H]5CCCN5C(=O)[C@@H](c5ccccc5)N5CCCCC5)[nH]4)cc3)cc2)[nH]1)c1ccccc1 [Compound 752], the pEC50 was over 9.00.
Compound COC(=O)N[C@@H](C(=O)N1CCC[C@H]1c1ncc(-c2ccc(C#Cc3ccc(-c4cnc([C@@H]5CCCN5C(=O)[C@H](C(C)C)N5CCOC5=O)[nH]4)cc3)cc2)[nH]1)c1ccccc1 [Compound 1005] has a pEC50 of over 9.00.
With COC(=O)N[C@@H](C(=O)N1CCC[C@H]1c1ncc(-c2ccc(C#Cc3ccc(-c4cnc([C@@H]5CCCN5C(=O)[C@H](NC(=O)N5CCC[C@H]5CO)c5ccccc5)[nH]4)cc3)cc2)[nH]1)c1ccccc1 [Compound 255] the pEC50 was over 9.00.

Same assay, conditions: Hepatitis C virus, Huh-7, read-out: Inhibition of HCV genotype 1b
In the case of COC(=O)N[C@H](C(=O)N1CCN(C(C)=O)C[C@H]1c1ncc(-c2ccc(C#Cc3ccc4nc([C@@H]5CCCN5C(=O)[C@@H](NC(=O)OC)C(C)C)[nH]c4c3)cc2)[nH]1)C(C)C [Compound 1232], the pEC50 was over 9.00.
COC(=O)N[C@H](C(=O)N1CCC[C@H]1c1ncc(-c2ccc3cc(C#Cc4[nH]c([C@@H]5CCCN5C(=O)[C@@H](NC(=O)OC)[C@@H](C)OC)nc4C(F)(F)F)ccc3c2)[nH]1)C(C)C [Compound 1258] showed a pEC50 of over 9.00.
In the case of C=CC[C@H](NC(=O)OC)C(=O)N1CCC[C@H]1c1nc2ccc(C#Cc3ccc4c(c3)CCCc3nc([C@@H]5CCCN5C(=O)[C@@H](NC(=O)OC)C(C)C)[nH]c3-4)cc2[nH]1 [Compound 1283], the pEC50 was over 9.00.
COC(=O)N[C@@H](C(=O)N1CCC[C@H]1CNC(=O)c1ccc(C#Cc2ccc3nc([C@@H]4CCCN4C(=O)[C@H](NC(=O)OC)c4ccccc4)[nH]c3c2)cn1)c1ccccc1 [Compound 1241] was tested, and the pEC50 was over 9.00.
For CC[C@H](NC(=O)OC)C(=O)N1CCC[C@H]1c1nc2ccc(C#Cc3ccc(-c4cnc([C@@H]5CCCN5C(=O)[C@@H](NC(=O)OC)[C@@H](C)OC)[nH]4)cc3)cc2[nH]1 [Compound 1245], the pEC50 was over 9.00.
In the case of COC(=O)N[C@H](C(=O)N1CCC[C@H]1c1ncc(-c2ccc3cc(C#Cc4[nH]c([C@@H]5CCCN5C(=O)[C@@H](NC(=O)OC)C5CCOCC5)nc4C(F)(F)F)ccc3c2)[nH]1)C1CCOCC1 [Compound 1256], the pEC50 was over 9.00.
